# In US9068228B2, “Method for screening ameliorants of dry skin caused by atopic dermatitis using bleomycin hydrolase activity as indicator” (Shiseido Company, Ltd., priority 2009, dated 2015):
# Entries after “also recorded” stand apart in the source; their conditions may differ.
# Legend:
# Assay type in all cases: cell-based, human
# bleomycin hydrolase mRNA = experiment: Effect of cytokines on bleomycin hydrolase mRNA expression by quantitative PCR (Experiment 5, FIG. 14); conditions: proliferative stage cultured keratinocytes, incubated 24 hours; IL-4 and TNF-α 0.1-10 ng/ml, IFN-γ 1.0-100 ng/ml
# Protocol: (§1) Normal human epidermal keratinocytes derived from neonatal epidermis (Kurabo, Osaka, Japan) were cultured in EpiLife medium (Cascade Biologics, Portland, Oreg.) containing low-concentration (0.03 mM) calcium and HKGS Growth Supplement (Cascade Biologics). All cells were incubated at 37° C. while supplying 5% CO2 and were used within 4 passages. Cells were collected at 70% confluence, 100% confluence, 2 days after confluence and 2 days after confluence in 2 mM calcium.
# The expression level of bleomycin hydrolase in keratinocytes was measured by quantitative PCR using the method described below. Measurement was carried out using the Light Cycler 480 (Roche Diagnostics GmbH, Mannheim, Germany), while Light Cycler FastStart DNA Master CYBR Green I was used for the reagent. 0.6 μl aliquots of each of the following bleomycin hydrolase primers and […] of water were added to 10 μl of SYBR Green I master mix to bring to a total volume of 20 μl followed by carrying out 45 cycles of PCR consisting of 15 seconds at 95° C., 20 seconds at 55° C. and 20 seconds at 72° C. The results obtained were corrected by comparing with the results for a housekeeping gene in the form of G3PDH. • Forward primer: […] (SEQ ID NO. 1) • Reverse primer: […] (SEQ ID NO. 2)
# IL-4 (final concentration: 0.1, 1.0 or 10 ng/ml), TNF-α (final concentration: 0.1, 1.0 or 10 ng/ml) and IFN-γ (final concentration: 1.0, 10 or 100 ng/ml) were respectively added to proliferative stage cultured keratinocytes, and after incubating for 24 hours, RNA was collected using Isogen. Expression of bleomycin hydrolase mRNA was measured by quantitative PCR. Based on the results shown in FIG. 14, interleukin-4 (IL-4), which is a type of Th2 cytokine, was determined to down-regulate expression of bleomycin hydrolase.
# MZF-1 = experiment: Real-time RT-PCR of transcription factor expression under cytokines (FIG. 22)
# Protocol: (§2) The transcription levels of BH and related factors were analyzed by quantitative real-time RT-PCR. Total RNA was extracted from cultured cells using Isogen (Nippon Gene, Tokyo, Japan) in accordance with the manufacturer's protocol. The total RNA was reverse-transcribed to cDNA using SuperScript™ II (Invitrogen, Carlsbad, Calif.). Real-time RT-PCR was carried out with the LightCycler Raid Cycler System using the LightCycler 480 SYBR Green I Master (Roche Diagnostics) in accordance with the manufacturer's protocol. Glyceraldehyde 3-phosphate dehydrogenase (GAPDH) was used as a reference gene. Specificity of the amplified fragments was confirmed by quantitative analysis of melting curves using LightCycler analytical software. The amounts of mRNA were standardized based on the mRNA of GAPDH and finally indicated as a ratio to mRNA of an untreated control.
# (§3) An investigation was made of the cytokine-dependent regulation of these transcription factors.
# IRF-2 = experiment: as above
# Protocol: as §2, §3
# IRF-1 mRNA = experiment: as above
# Protocol: as §2, §3
# Sp-1 = experiment: as above
# Protocol: as §2, §3
# BH mRNA = experiment: Real-time RT-PCR analysis of BH gene expression under cytokines (Experiment 6, FIG. 20A); conditions: proliferative keratinocytes, 24 hours, ratio to untreated control
# Protocol: as §1, §2
# Since BH is an NMF-generating enzyme, it has the potential to be involved in the pathophysiology of AD. Accordingly, an investigation was made of the effects of cytokines Th1, Th2 and Th17 on BH gene expression. […] Similar results were obtained with differentiated keratinocytes (data not shown). A promoter assay was carried out in order to determine the role of IFN-γ in regulation of BH gene expression, and response elements were specified. […] In addition, IRF-1 and IRF-2 gene expression was inhibited using small interfering RNA (siRNA) in order to determine whether or not IRF-1/2 is an essential mediator of IFN-γ-induced down-regulation of BH.
# BH promoter = BH promoter luciferase assay in transfected keratinocytes (FIG. 20B)
# Protocol: The graphs indicate the effects of cytokines Th1, Th2 and Th17 on BH gene expression. […] The graphs indicate BH promoter activity in cultured keratinocytes in the presence of IFN-γ. Keratinocytes were transfected with pGL3-216 containing intact IRF-1/2 binding sites of BH promoter regions followed by treating for 24 hours with IFN-γ (upper panel). Keratinocytes were transfected with ΔpGL3-616 (IRF-1/2 deletion mutants) followed by treating for 24 hours in the presence or absence of IFN-γ or IL-4 at 10 ng/ml (lower panel). […] Keratinocytes were transfected with siRNA (40 nM) of IRF-1 or IRF-2 followed by culturing for 24 hours, treating with IFN-γ at 10 ng/ml and isolating RNA after further culturing for 24 hours. The panel on the right indicates the silencing effects of IRF-1 and IRF-2.
# Keratinocytes were cultured in a 12-well tissue culture plate at a density of 5×10^4 cells/well, and were transfected using FuGene HD Transfection reagent (Roche Diagnostics, Basel, Switzerland) and 1 μg aliquots of each construct. […] Luciferase activity was analyzed using the Dual Luciferase Reporter Assay System (Promega) and Autolumat Plus Luminometer (Berthold Technologies, Bad Wildbad, Germany). […]
# [1] = cultured keratinocytes, concentration not given
Substance,expression of bleomycin hydrolase mRNA (bleomycin hydrolase mRNA),expression of MZF-1 (MZF-1; IL-4 at 10 ng/ml),expression of MZF-1 (MZF-1; [1]),expression of IRF-2 (IRF-2; IL-4 at 100 ng/ml only),expression of IRF-1 (IRF-1 mRNA; IL-4 at 100 ng/ml only),expression of Sp-1 (Sp-1; IL-4 at 10 ng/ml),expression of Sp-1 (Sp-1; [1]),expression of BH mRNA (BH mRNA),"BH promoter activity after deletion of IRF-1/2 binding sequence (BH promoter; keratinocytes transfected with IRF-1/2 deletion mutant, 10 ng/ml, 24 hours)","BH promoter activity (BH promoter; proliferative keratinocytes transfected with pGL3-BH-616 containing IRF-1/2 binding sequence, IFN-γ 24 hours)",expression of IRF-2 (IRF-2; in the presence of IFN-γ),"expression of IRF-1 mRNA (IRF-1 mRNA; IFN-γ, dose-dependent)",expression of BH mRNA (BH mRNA; listed as IFN)
IL-4: Human IL-4 purchased from Peprotech EC; Th2 cytokine,down-regulates,most effectively down-regulated,significantly inhibited; also recorded: down-regulated,significantly enhanced,significantly enhanced,most effectively down-regulated,significantly inhibited; also recorded: down-regulated,did not demonstrate any direct action whatsoever,,,,,
IFN-γ: Human IFN-γ purchased from Peprotech EC; Th1 cytokine,significantly increases,,,,,,,down-regulated; also recorded: remarkably decreased,no longer inhibited,down-regulated,up-regulated,strongly up-regulates,significantly decreased
TNF-α,significantly increases,,,,,,,,,,,,
IL-13: Human IL-13 produced by R&D Systems Inc.; Th2 cytokine,,,significantly inhibited,,,,significantly inhibited,did not demonstrate any direct action whatsoever,,,,,
